Source: patent US10590392B2, “Generation of airway epithelial organoids from human pluripotent stem cells” (TRUSTEES OF BOSTON UNIVERSITY, priority 2017, dated 2020)

Test system: sorted NKX2-1GFP+ epithelial lung progenitors
Assay: Purified NKX2-1GFP+ lung progenitors replated in 3D culture with or without CHIR, day 14 to 20
Format: cell-based, human
Description: Cells grown in two-dimensional culture were harvested by incubation with 0.05% Trypsin-EDTA for 10-20 minutes at 37° C. Cells cultured in three-dimensional growth factor reduced Matrigel were harvested by incubation with 2 mg/mL dispase (ThermoFisher) for 30-60 minutes at 37° C. then subsequent incubation with 0.05% trypsin at 37° C. until a single cell suspension was achieved. Cells were washed with media containing 10% fetal bovine serum (FBS, ThermoFisher.) Harvested cells were spun at 300 RCF for 5 minutes at 4° C. and resuspended in buffer containing Hank's Balanced Salt Solution (ThermoFisher), 2% FBS and 10 μM Y-27632 (Tocris) and stained with propidium iodide (ThermoFisher) or calcein blue AM (ThermoFisher) for dead cell exclusion during flow cytometry. Live cells were sorted on a high speed cell sorter (MoFlo Legacy, Beckman Coulter, Pasadena, Calif.) at the Boston University Medical Center Flow Cytometry Core Facility based on NKX2-1GFP expression or by staining for CD47 (Biolegend) and CD26 (Biolegend) and gating for CD47^hi/CD26^−. […]
The final protocol for generating rapidly proximalized NKX2-1+ lung epithelium was replating unsorted or sorted cells for 4 days of culture post-specification in cSFDM containing 10 ng/mL FGF10. […] Cells were analyzed for expression of proximal markers 4 days post-replating in FGF10 media.
The inventors next assessed whether the effect of CHIR manipulation on proximodistal lung patterning was intrinsic to lung epithelial cells rather than due to secondary or bystander effects. […] By day 20, the sorted cells formed small spheres coexpressing NKX2-1 and EPCAM (FIG. 3B-3C). >90% of all outgrowth cells in either culture conditioned maintained NKX2-1^GFP (+CHIR: 98.2±0.5%−CHIR: 93.4±2.3%) (FIG. 3D-3E) and cells in each condition formed organoids with no measured statistical difference in efficiency.

[1] = withdrawal of CHIR, re-sorted NKX2-1GFP+ cells at day 20

## Cc1c[nH]c(-c2cnc(NCCNc3ccc(C#N)cn3)nc2-c2ccc(Cl)cc2Cl)n1 [CHIR, CHIR99021]
+CHIR day 14-20, 3D culture of sorted cells, flow cytometry, −CHIR: 93.4±2.3%
  outgrowth cells maintaining NKX2-1GFP on day 20: 98.2±0.5%
[1]
  expression of distal lung genes SOX9 and ETV5: downregulation
  expression of proximal lung genes SOX2, SCGB3A2, TP63: upregulation
